Test results reported in US12029682B2, “Spray ejector mechanisms and devices providing charge isolation and controllable droplet charge, and low dosage volume ophthalmic administration” (EYENOVIA, INC., priority 2012, dated 2024).
Entries after “also recorded” stand apart in the source; their conditions may differ.

Assays:
Assay type in all cases: in vivo, beagle dog
glaucomatous beagles [1] = assay: Intraocular pressure (IOP), TonoVet, in glaucomatous beagles; details: for IOP decrease: 6.0 μl at 0.025% via spray ejector device and 0.005% eyedropper had similar results
glaucomatous beagles [2] = assay: Pupil diameter (PD), Jameson Caliper, in glaucomatous beagles
glaucomatous beagles [3] = assay: Ocular irritation observations in glaucomatous beagles
Method: Active drug delivery begins on study day eight. For five days, IOP and PD measurements are taken at 0900. Immediately after 0900 measurements (time 0), each animal receives 6 μl of generic latanoprost in its assigned eye with the ejector device, followed by a second dosing 3 minutes later of an additional 6 μl (to avoid overloading the conjunctival sac). The contralateral eye receives a clinical dose (one drop) of the same commercially-available topical drug from FDA approved container (positive control). The ejector device is checked for accuracy before and after every use (Table 1). Standard measurements continue throughout each day (at 0:30, 0:45, 1, 2, 7 hrs). Possible endpoints include, but are not limited to, excessive ocular irritation, ocular damage, or other illness and injury. […]
(§1) On study days 5-9, IOP and PD measurements were taken at approximately 0900 h (time 0). Immediately after these measurements, each animal received 6 μl of 0.03% bimatoprost in its assigned eye via the spray ejector device. The contralateral eye received a clinical dose (one drop) of the same commercially available topical drug from a traditional eyedropper (positive control). The spray ejector device was checked for accuracy before and after every use and required a 10% delivered dose accuracy in pretreatment. Standard measurements continued throughout each day at 0, 1, 2, 4, and 7 hours. Possible endpoints included, but were not limited to, excessive ocular irritation, ocular damage, and other illness or injury. No statistical crossover was utilized for this study.
Ophthalmic examinations (slit lamp with fluorescein and indirect ophthalmoscopy) were performed on the eyes of each animal prior to Study Day 1. Ocular findings were scored according to the McDonald-Shadduck Score System. Ocular findings were recorded using a standardized data collection sheet. Macroscopic observations were recorded in accordance with the Draize Scale for Scoring Ocular Lesions. Animals were assigned treatments based on basic randomization prior to study day one.
Following a 7 day rest period, the eye choice was reversed. Measurements of IOP, heart rate and pupil diameter (PD) were made at 0:15, 0:30, 0:45, 1, 2, 4, 7, and 18 hours in the primary and crossover study. A veterinary ophthalmologist evaluated each test subject before and after the study for evidence of ocular side effects.
Ophthalmic examinations (slit lamp with fluorescein and indirect ophthalmoscopy) were performed on the eyes of each animal prior to study day 1. Ocular findings were scored according to the McDonald-Shadduck score system and macroscopic observations were recorded in accordance with the Draize scale for scoring ocular lesions. Ocular findings were recorded using a standardized data collection sheet.

glaucomatous beagles [4] = assay: Intraocular pressure (IOP), TonoVet, in glaucomatous beagles
Method: (§2) One glaucomatous beagle dog (female, aged 3 years) from the University of Florida MacKay Colony of Glaucomatous Beagles was chosen for this study. The animal was rested a minimum of one week before starting the study. Prior to the commencement of the study, the animal was assigned one eye to receive 1.5 μl of 0.005% latanoprost and the contralateral eye to remain untreated as a control. The basic measurement protocol was followed at all times and performed by the same operator. PD was measured via Jameson Caliper (mm horizontally). IOP was measured using a TonoVet instrument with clean probe (iCare). IOP and PD were measured at time 0, 1, 2, 4, 7 and 18 hours daily for two days. Immediately after the time 0 measurement, the animal received 1.5 μl of 0.005% latanoprost in its assigned eye with a spray device. The contralateral eye was left untreated. The spray device was checked for accuracy before and after every use, and required a 10% delivered dose accuracy in pretreatment. Standard measurements continued throughout each day at time 1, 2, 4, 7 and 18 hours. Possible endpoints included, but were not limited to, excessive ocular irritation, ocular damage, and other illness or injury. No statistical crossover was utilized for this study.
as §2, with “study.” for “study. The animal was rested a minimum of one week before starting the study.”, “receive 3.0” for “receive 1.5”, “0 measurements,” for “0 measurement,”, “animal was administered 3.0” for “animal received 1.5”, “eye using” for “eye with”, “spray ejector” for “spray”
All animals were rested for a minimum of one week before starting the trials. IOP and pupil diameter (PD) were measured 5 times (at 0, 1, 2, 4, and 7 hours) daily for four days (study days 1-4) to establish initial baseline levels. The basic measurement protocol was followed at all times and performed by the same operator. PD was measured via Jameson Caliper (mm horizontally). IOP was measured with a TonoVet instrument with clean probe (iCare). After three rest days, one eye was randomly assigned to receive 9 μl of 0.005% latanoprost delivered via a spray ejector device, and the contralateral eye was administered traditional latanoprost from a traditional eyedropper container (26-30 μl).
as §1, with “time 0” for “these”, “a once-daily dose of 9” for “6”, “generic 0.005% latanoprost” for “0.03% bimatoprost”, “study. […]” for “study.”

[5] = 1.5 μl of 0.005% once daily, spray ejector device, one dog, by hour 2
[6] = 3.0 μl of 0.005% once daily, spray ejector device, one dog, by hour 2
[7] = 12 μl of 0.005% BID via spray ejector device

## CC(C)OC(=O)CCC/C=C\C[C@@H]1[C@@H](CC[C@@H](O)CCc2ccccc2)[C@H](O)C[C@@H]1O [latanoprost]
Glaucomatous beagles [1]; 0.005%, one drop (26-30 μl) by eyedropper
  duration of action vs spray ejector device: greater
Glaucomatous beagles [1]; [5]
  maximum decrease in IOP from the initial value: 16 mmHg
Glaucomatous beagles [1]; [6]
  IOP in the treated eye: 19 mmHg
Glaucomatous beagles [1]; 3.0 μl of 0.005% via spray ejector device
  effectiveness at lowering IOP and constricting the pupil vs traditional eyedropper therapy: as effective at lowering IOP and constricting the pupil as traditional eyedropper therapy
Glaucomatous beagles [1]; 9 μl of 0.005% once daily via spray ejector device
  IOP values vs baseline: significantly lower than baseline
Glaucomatous beagles [1]; [7]
  average daily change / average fluctuation in IOP (maximum minus minimum): 7.6 mmHg
  average fluctuation in IOP: 30%
  morning IOP spike compared to eyedropper delivery: consistently prevented the anticipated morning IOP spike
Glaucomatous beagles [1]; 12 μl of 0.005% BID via spray ejector device, day 8
  maximum IOP: 17.2±3.0 mmHg
Glaucomatous beagles [1]; 12 μl of 0.005% BID via spray ejector device, day 8, hour 7
  minimum IOP: 13.6±1.2 mmHg
Glaucomatous beagles [1]; 12 μl of 0.005% BID via spray ejector device, day 9
  maximum IOP: 26.2±6.3 mmHg
Glaucomatous beagles [1]; 12 μl of 0.005% BID via spray ejector device, day 9, hour 4
  minimum IOP: 16.2±1.5 mmHg
Glaucomatous beagles [1]; 12 μl of 0.005% BID via spray ejector device, day 10
  maximum IOP: 27.5±3.5 mmHg
Glaucomatous beagles [1]; 12 μl of 0.005% BID via spray ejector device, day 10, hour 4
  minimum IOP: 14.0±1.3 mmHg
Glaucomatous beagles [1]; 12 μl of 0.005% BID via spray ejector device, day 11
  maximum IOP: 26.5±2.8 mmHg
Glaucomatous beagles [1]; 12 μl of 0.005% BID via spray ejector device, day 11, hour 7
  minimum IOP: 14.7±0.9 mmHg
Glaucomatous beagles [1]; 30 μl of 0.005% once daily via spray ejector device, 2 dogs
  effectiveness at lowering/controlling IOP vs traditional eyedropper therapy: as effective at lowering IOP and constricting the pupil as the traditional eyedropper therapy; also recorded: as effective in controlling IOP as traditional eyedropper therapy
Glaucomatous beagles [1]; 30 μl of 0.005% via spray ejector device, pilot study
  duration of action vs eyedropper: trend toward increased duration of action
Glaucomatous beagles [1]; any point in the study (p=0.823)
  IOP: spray ejector device 6.0 μl at 0.025% vs 0.005% eyedropper: no significant differences; also recorded: statistically equivalent
Glaucomatous beagles [1]; first day of the study
  IOP decrease: approximately 45.4 mmHg
Glaucomatous beagles [1]; one drop of 0.005% by eyedropper, over the 5 days of the study
  maximum decrease in IOP: 27.5 mmHg
Glaucomatous beagles [1]; subsequent days
  IOP decrease: ~24.7 mmHg
Glaucomatous beagles [2]; [7]
  duration of PD constriction vs eyedropper: remained constricted much longer
Glaucomatous beagles [2]; any point in the study (p=0.943)
  PD: spray ejector device 6.0 μl at 0.025% vs 0.005% eyedropper: no significant differences
Glaucomatous beagles [2]; both treatments (spray ejector device BID, eyedropper), by time 1 hour on most days
  minimum PD: pinpoint
Glaucomatous beagles [2]; by time 1 hour each day, 6.0 μl at 0.025% spray ejector device and 0.005% eyedropper
  PD: 0 mm
Glaucomatous beagles [3]; 0.005%, either treatment (spray ejector device BID, eyedropper)
  ocular irritation, injury, or discomfort: no significant reports of ocular irritation, injury, or discomfort
Glaucomatous beagles [3]; 0.005%, ejector device 12 μl and eyedropper
  excessive eye irritation or other eye issues: no reports of excessive eye irritation or other eye issues
Glaucomatous beagles [3]; 6.0 μl at 0.025% spray ejector device and 0.005% eyedropper
  irritation: Normal irritation caused by prostaglandin analogues was present
Glaucomatous beagles [3]; 9 μl of 0.005% via spray ejector device
  irritation vs eyedropper-treated eyes: less than that observed in the eyedropper-treated eyes
Glaucomatous beagles [3]; [7]
  irritation to the eye with the lower dosage: less irritation to the eye
Glaucomatous beagles [3]; five times (5×) concentration (0.025%) via spray ejector device
  irritation vs eyedropper administration: no more irritation than that occurring following eyedropper administration
Glaucomatous beagles [3]; traditional treatment eyes (eyedropper), related to prostaglandin use
  conjunctival irritation: Some conjunctival irritation was noted
Glaucomatous beagles [4]; [5]
  IOP in the treated eye: 11 mmHg
Glaucomatous beagles [4]; 1.5 μl of 0.005% via Whisper MDD
  effectiveness at lowering IOP and constricting the pupil vs traditional therapy: as effective at lowering IOP and constricting the pupil as traditional therapy
Glaucomatous beagles [4]; 3.0 μl of 0.005% once daily, spray ejector device, one dog
  time of maximum decrease in IOP: hour 7 on day 2
Glaucomatous beagles [4]; [6]
  decrease in IOP from the initial value: 12 mmHg
Glaucomatous beagles [4]; 9 μl of 0.005% once daily via spray ejector device vs one drop (26-30 μl), 5 days, 7-hour period
  effectiveness at lowering/controlling IOP vs traditional eyedropper therapy: as effective at lowering IOP and constricting the pupil as traditional therapy; also recorded: as effective at controlling IOP as traditional eyedropper therapy
Glaucomatous beagles [4]; 12 μl of 0.005% BID via spray ejector device, study day 7 (first day of instillation)
  maximum decrease in IOP: 28 mmHg
Glaucomatous beagles [4]; 12 μl of 0.005% BID via spray ejector device, study day 7, hour 7
  IOP level: 15.5±2.2 mmHg
Glaucomatous beagles [4]; one drop of 0.005% by eyedropper
  average daily change in IOP (maximum minus minimum): 14.6 mmHg
Glaucomatous beagles [4]; two 6 μl doses of 0.005% via ejector device vs one drop by eyedropper
  IOP: ejector device treatment vs traditional treatment: no significant differences; also recorded: statistically indistinguishable
